Measured values from patent publication US20260286363A1, “COMPOSITIONS AND METHODS FOR DIAGNOSING, TREATING, AND PREVENTING LYSOSOMAL STORAGE DISEASES” (Wylder Nation Foundation, priority 2022, published 2026).
Read-outs that look alike come from different tables or passages of the source.

Assays:
cultured wt neurons [1] = experiment: Cell viability MTT assay in cultured wt neurons; assay type: cell-based, mouse; settings: for neuronal death upon SM16:0 addition in the presence of acid and neutral sphingomyelinase inhibitors (MTT): wt neurons, SM16:0 plus desipramine or GW4869
Experimental: Cell viability was evaluated using the MTT (methylthiazolyldiphenyltetrazoliumbromide, Sigma) assay. Briefly, 3×10^4 neurons were plated in 96-well plates coated with poly-L-lysine (0.1 mg/ml). At DIV14 1 mM MTT was added to the wells and incubated for 4 h. Then, the supernatant was discarded, and […] DMSO was added to the wells. The absorbance was measured at 570 nm using a microplate reader (FLUOstar Optima, BMG Labtech). Cells treated with DMSO were used as a control.

wt neurons = settings: cultured neurons
Experimental: To assess reactive oxygen species (ROS), cultured neurons were incubated for 20 min with dihydrorhodamine 123 (10 μM, DHR: Molecular Probes, Carlsbad, CA, USA). The fluorescence product of DHR, rhodamine-123, was detected at excitation and emission wavelengths of 500 and 536 nm, respectively. Images of cultured neurons were captured on a confocal microscope (LSM710; Zeiss).
Since high levels of SM also can induce oxidative stress, reactive oxygen species (ROS) was evaluated by dihydrorhodamine 123 (DHR) staining in wt neurons incubated with the different SM species.

[2] = system: wt primary cultured neurons; settings: not told
Experimental: Lysotracker Red DND99 (Thermo Fisher Scientific) was added to wt primary cultured neurons at 1 μM and incubated for 20 min at 37° C. Cells were then fixed in 4% PFA and mounted using Prolong Gold Antifade (Invitrogen). Images were taken on a confocal LSM710 microscope (Zeiss).
To investigate the effect of the different SM species in these organelles, several lysosomal-related parameters were measured. To analyze lysosomal permeabilization, the lysotracker red dye, which fluoresces in acidic environments was utilized.

ASM = biological target: T1, ASM (Mus musculus, UniProt Q04519); experiment: Enzymatic assay of SMb or SM16:0 metabolized by ASM activity; assay type: biochemical; settings: fluorescence per nmol metabolized, slope analysis
T1 sequence (Q04519 45-627): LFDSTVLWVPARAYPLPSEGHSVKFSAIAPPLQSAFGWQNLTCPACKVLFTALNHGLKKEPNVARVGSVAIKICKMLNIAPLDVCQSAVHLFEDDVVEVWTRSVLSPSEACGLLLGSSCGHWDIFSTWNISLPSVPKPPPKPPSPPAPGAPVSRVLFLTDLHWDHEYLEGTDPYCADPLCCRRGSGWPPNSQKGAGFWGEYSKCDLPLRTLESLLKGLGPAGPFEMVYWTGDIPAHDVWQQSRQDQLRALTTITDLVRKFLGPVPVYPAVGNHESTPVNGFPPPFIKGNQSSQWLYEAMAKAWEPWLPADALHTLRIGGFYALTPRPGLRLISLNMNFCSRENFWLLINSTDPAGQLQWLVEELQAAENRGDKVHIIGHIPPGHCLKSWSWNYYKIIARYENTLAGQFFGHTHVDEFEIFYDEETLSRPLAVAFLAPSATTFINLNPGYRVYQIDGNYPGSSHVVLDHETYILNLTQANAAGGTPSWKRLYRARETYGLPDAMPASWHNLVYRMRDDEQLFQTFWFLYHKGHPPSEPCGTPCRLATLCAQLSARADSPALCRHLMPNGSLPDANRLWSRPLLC
Experimental: SM levels were measured according to protocols modified from (Hojati and Jiang, 2006). Lipid extracts were dried in the presence of Thesit, and SM was converted into peroxide by incubation with sphingomyelinase (Smase C from Merck; #S9396 or ASM from Sino Biological; #50749-M08B), alkaline phosphatase, and choline oxidase. Peroxide was measured fluorimetrically in the presence of peroxidase and homovanillic acid (Van Veldhoven et al., 1997).

cultured wt neurons [3] = experiment: pSM16:0 co-localization with subcellular markers (Mander's coefficient); assay type: cell-based, mouse
Experimental: Cultured neurons at 14 DIV were fixed in 4% PFA 0.12M sucrose and incubated overnight with primary antibodies and subsequently for 1 h with Alexa 488- or Alexa 555-conjugated secondary antibodies. Images were taken using a confocal microscope LSM710 (Zeiss). The Mander's coefficient for pSM 16:0 co-localization with Thy1; PSD95; TOM20; EEA1; LAMP1; GM130 was determined by using the JACOP plugin. Mouse brains were dissected, fixed in 4% PFA 0.12M sucrose, and cryoprotected for 24 h in 30% sucrose phosphate buffer saline. The tissue was then frozen in Tissue-Tek optimal cutting temperature compound (Sakura Finetek, Torrance, CA, USA), and 40-μm sagittal sections were obtained with a cryostat (CM 1950 Ag Protect freezing: Leica, Solms, Germany). The sections were incubated overnight at 4° C. with the primary antibodies and then with the corresponding Alexa-conjugated secondary antibodies. Finally, the sections were incubated for 10 min with DAPI (Merck), washed, and mounted with ProLong Gold Antifade (Thermo Fisher). Images were obtained on a confocal LSM710 microscope (Zeiss) and quantified using the Fiji software.
Cultured neurons were treated with 40 μM propargyl SM (pSM 16:0) (Merck; #860711P) for 48 hours at DIV12. After immunofluorescence protocol, explained above, click reaction was performed for the attachment of fluorescent reporter (Sulfo-Cy3-Azide; Jena Biosciences; #CLK-AZ119-1) to pSM 16:0.
The surprising effects of SM16:0 on lysosomes compared to other SM species supported a hypothesis that this lipid targets these organelles. To explore this possibility, we took advantage of the existence of the analogue propargyl SM16:0 (pSM16:0), which is linked to an alkyne group and can be traced by click chemistry and fluorescence microscopy. We added pSM16:0 for 48 hours to cultured wt neurons and performed double immunofluorescence with markers of different cellular compartments.

cultured wt neurons [4] = experiment: LAMP1 surface staining in non-permeabilized neurons (lysosomal exocytosis); assay type: cell-based, mouse
Experimental: ASMko and wt cultured neurons at 14DIV were washed with PBS and fixed with 2% PFA in PBS and 0.12 M sucrose for 8 min. Immunofluorescence was performed using a conventional protocol in the absence of detergent to avoid cell permeabilization.

[5] = system: Cortical neurons from wt mice; experiment: LC/MS quantification of SM in cultured wt neurons incubated with SM species; assay type: cell-based, mouse; settings: for increase of total SM levels: wt cortical neurons cultured 48 hr with 40 μM; for relative abundance of the added SM species, of the total SM: wt cortical neurons, 48 hr, 40 μM
Experimental: Sample analysis was performed in an Acquity ultraperformance liquid chromatography (UPLC) system (Waters, USA) connected to a time-of-flight (TOF; LCT Premier XE) detector controlled with Waters/Micromass MassLynx software.
A study was done to determine the impact of the different increments of individual SM species in ASMko mice and cells on their specific accumulation in neurons. Cortical neurons from wt mice were cultured for 48 hr with 40 μM of either total SM from bovine brain (SMb, containing similar SM species proportions than total SM from mouse brain); or individual SM16:0; SM18:0 or SM24:1. […] LC/MS quantification assessed the effect of each treatment on the relative abundance of the added SM species. Incubation with SM16:0 and SM18:0 drastically raised the relative abundance of each of these species to 88% and 82% of the total (FIG. 2B). Incubation with SM24:1 increased the prevalence of this species to 30%, while addition of SMb reduced the relative abundance of SM18:0 and SM16:0 by 4% and 15%, respectively, while increased that of SM24:1 by 8% (FIG. 2B).

ASM knock-out mice = experiment: Lipidomic analysis of brain, liver and plasma of ASM knock-out mice after i.p. rhASM; assay type: in vivo, mouse
Experimental: Mouse brain and liver samples were homogenized in water (1 g wet tissue/4 mL). SM was extracted from 50 μL of homogenate or 50 μL of plasma in the presence of SM (17:0) as internal standard using Bligh-Dyer lipid extraction (Bligh and Dyer, 1959). Sample analysis was performed in a Shimadzu 20AD HPLC system coupled to a 6500QTRAP+ mass spectrometer (AB Sciex, Framingham, MA) operated in positive multiple reaction monitoring mode. Data processing was conducted with Analyst 1.6.3 (AB Sciex). Data were reported as the peak area ratios of the analytes in sample to the internal standard.
To identify potential biomarkers of brain pathology in ASMD subjects a study was conducted in ASM knock-out mice. In brief, ASM knock-out mice received an i.p. injection of rhASM at 1 mg/kg every other day for 14 days. Results were compared to previous lipidomic analysis done on WT/ASMko mice at 2, 4, and 6 months.
Lipidomic analysis were completed on the brain, liver, and plasma of the treated mice. Analyzed lipids comprised: SM, LSM, SM OH, and m/z 805 (a phosphocholine compound). Total SM levels post i.p. rhASM injection are shown in FIG. 13A and below at Table 3.

[6] = 48 hours, wt neurons, Mander's coefficient
[7] = Liver, i.p. 1 mg/kg every other day for 14 days
[8] = Plasma, i.p. 1 mg/kg every other day for 14 days

Molecule: Cl.Cl.O=C(/C=C/c1ccc(/C=C/C(=O)Nc2ccc(C3=NCCN3)cc2)cc1)Nc1ccc(C2=NCCN2)cc1 [GW4869]
- neuronal death upon SM16:0 addition in the presence of acid and neutral sphingomyelinase inhibitors (MTT) (cultured wt neurons [1]): not prevented

Molecule: CCCCCCCCCCCCC/C=C/[C@@H](O)[C@H](COP(=O)([O-])OCC[N+](C)(C)C)NC(=O)CCCCCCCCCCCCCCC [SM16:0, sphingomyelin 16:0]
- elevation in ROS levels (DHR staining) (wt neurons): 1.6 fold
- reduction of neuronal survival / cell death (MTT) (cultured wt neurons [1]; mouse, cultured neurons): 50%
- neuronal death upon SM16:0 addition in the presence of acid and neutral sphingomyelinase inhibitors (MTT) (cultured wt neurons [1]): induces cell death
- lysosomal permeabilization (change of Lysotracker staining from dotty to diffuse cytosolic pattern) [2]: indicative of lysosomal permeabilization
- substrate preference of ASM (SM16:0 vs SMb) (ASM): ASM has a preference to degrade SM16:0
- accumulation in lysosomes (pSM16:0 colocalization with Lamp1) (cultured wt neurons [3]; wt neurons treated with ASM inhibitor desipramine): accumulates in lysosomes
- lysosomal exocytosis (surface staining of LAMP1) (cultured wt neurons [4]): induced lysosomal exocytosis
- increase of total SM levels [5]: 6.6 fold
- relative abundance of the added SM species, of the total SM [5]: 88%

Molecule: CCCCCCCCCCCCC/C=C/[C@@H](O)[C@H](COP(=O)([O-])OCC[N+](C)(C)C)NC(=O)CCCCCCCCCCCCCCCCC [SM18:0, sphingomyelin 18:0]
- reduction of neuronal survival / cell death (MTT) (cultured wt neurons [1]; mouse, cultured neurons): 25%
- increase of total SM levels [5]: 3.5 fold
- relative abundance of the added SM species, of the total SM [5]: 82%

Molecule: sphingomyelin 24:1 [SM24:1]
- reduction of neuronal survival / cell death (MTT) (cultured wt neurons [1]): no deleterious effects
- increase of total SM levels [5]: not significant
- relative abundance of the added SM species, of the total SM [5]: 30%

Molecule: propargyl SM16:0 [pSM16:0]
- co-localization with early endosome marker EEA1 (cultured wt neurons [3]; [6]): low degree of co-localization
- co-localization with mitochondrial marker TOM20 (cultured wt neurons [3]; [6]): low degree of co-localization
- co-localization with plasma membrane marker Thy-1 (cultured wt neurons [3]; [6]): low degree of co-localization
- co-localization with synaptic marker PSD95 (cultured wt neurons [3]; [6]): low degree of co-localization
- colocalization with Golgi apparatus marker GM130 (cultured wt neurons [3]; [6]): high colocalization
- colocalization with endolysosomal marker LAMP1 (cultured wt neurons [3]; [6]): high colocalization

Molecule: CCCCCCCCCCCCC/C=C/[C@@H](O)[C@@H](N)COP(=O)([O-])OCC[N+](C)(C)C [LysoSM, lyso-sphingomyelin]
- deleterious effects on cultured neurons (MTT viability) (cultured wt neurons [1]; addition to cultured neurons): did not find deleterious effects

B1: rhASM: recombinant human acid sphingomyelinase (protein, UniProt P17405 47-631, looked up)
Sphingomyelin …: LALSDSRVLWAPAEAHPLSPQGHPARLHRIVPRLRDVFGWGNLTCPICKGLFTAINLGLKKEPNVARVGSVAIKLCNLLKIAPPAVCQSIVHLFEDDMVEVWRRSVLSPSEACGLLLGSTCGHWDIFSSWNISLPTVPKPPPKPPSPPAPGAPVSRILFLTDLHWDHDYLEGTDPDCADPLCCRRGSGLPPASRPGAGYWGEYSKCDLPLRTLESLLSGLGPAGPFDMVYWTGDIPAHDVWHQTRQDQLRALTTVTALVRKFLGPVPVYPAVGNHESTPVNSFPPPFIEGNHSSRWLYEAMAKAWEPWLPAEALRTLRIGGFYALSPYPGLRLISLNMNFCSRENFWLLINSTDPAGQLQWLVGELQAAEDRGDKVHIIGHIPPGHCLKSWSWNYYRIVARYENTLAAQFFGHTHVDEFEVFYDEETLSRPLAVAFLAPSATTYIGLNPGYRVYQIDGNYSGSSHVVLDHETYILNLTQANIPGAIPHWQLLYRARETYGLPNTLPTAWHNLVYRMRGDMQLFQTFWFLYHKGHPPSEPCGTPCRLATLCAQLSARADSPALCRHLMPDGSLPEAQSLWPRPLFC
- SM 16:0 level decrease after i.p. rhASM injection (ASM knock-out mice; Brain): does not change
- Total LSM levels, % Decrease with rhASM injection (ASM knock-out mice; Brain, i.p. 1 mg/kg every other day for 14 days): does not change
- SM 16:0 level decrease after i.p. rhASM injection (ASM knock-out mice; Liver): 15%
- Total SM levels, % Decrease with rhASM injection (ASM knock-out mice; [7]): 22%
- Total m/z 805 levels, % Decrease with rhASM injection (ASM knock-out mice; [7]): 70%
- SM 16:0 level decrease after i.p. rhASM injection (ASM knock-out mice; Plasma): 35%
- Total LSM levels, % Decrease with rhASM injection (ASM knock-out mice; [8]): 70%
- Total SM levels, % Decrease with rhASM injection (ASM knock-out mice; [8]): 31%
- SM OH levels after i.p. rhASM injection (ASM knock-out mice; brain, liver, plasma): reduction in all samples tested
- m/z 805 levels after rhASM injections, across tissues (ASM knock-out mice; brain, liver, plasma): decreases only in the liver
